Reference: patent US20260207570A1, “OPTIMIZED DOSING OF LERIGLITAZONE” (MINORYX THERAPEUTICS S.L., priority 2022, published 2026)

How the values were obtained:
[1] = Phase 1 safety and tolerability (treatment-emergent adverse events); assay type: in vivo, human
Method: Study design: A phase 1, randomized, double blind, placebo-controlled, single-center clinical study in 33 male healthy volunteers (HV) (19-54 years, 63.2-95.7 Kg) was conducted with leriglitazone HCl and divided in two parts: a single ascending dose (SAD) with three dose levels (30, 90 and 270 mg) in fasted conditions, followed with two dose levels (90 and 270 mg) in fed conditions; a multiple ascending dose (MAD) with a double-blind, parallel-design with two dose levels (135 and 270 mg) for 8 days and a separate cohort of subjects in an open-label parallel design with two dose levels (135 and 270 mg) including cerebrospinal fluid (CSF) collection on day 8. In the fasted conditions a fasting period of at least 4 hours was required before obtaining plasma samples. The food effect (FE) was assessed by comparing fasted with fed conditions (dosing after a high-fat breakfast per FDA definition with a calculated caloric content of 918 kcal). In the MAD part (fed) the medication was taken before a normal breakfast. Leriglitazone HCl was supplied by ChemConnection and an oral suspension of leriglitazone (20% w/v kleptose, 2% ethanol in 100 mM phosphate buffer pH=7.8) at 6 mg/ml was used in the study. Safety: Safety and tolerability assessments consisted of adverse events (AEs), clinical laboratory, vital signs, 12-lead electrocardiogram (ECG), and physical examination.

[2] = Adult PBPK model (Simcyp) development, simulation and verification; set-up: species or system human
Excerpt: A PBPK model for leriglitazone HCl was developed with the Simcyp Population-Based Simulator Version 17 release 1.
A first-order absorption model with inputs based on clinical data was used to describe the absorption kinetics of the drug. Dose-dependent ka values were estimated from phase 1 SAD data and were incorporated to account for the less than dose proportional increase in the Cmax of leriglitazone as well as the negative food effect on the Cmax (Table 2).
A global scalar of 0.7 was applied to match the estimated value. The full PBPK model was applied in all simulations of the plasma concentration-time profiles of the drug in order to recover the shape of the concentration-time profiles.
Predictions of plasma concentration-time profiles and clearance were performed in the Simcyp Simulator using the default Sim-Healthy volunteer population, whose parameter values have been described previously. Howgate, E. M., et al., Xenobiotica Fate Foreign Compd. Biol. Syst. 36, 473-497 (2006); Inoue, S. et al., Xenobiotica Fate Foreign Compd. Biol. Syst. 36, 499-513 (2006). The trial design used for simulation of the plasma concentration-time profile of a single dose of leriglitazone in fasted and fed subjects was based on the phase 1 SAD results. Concentration-time profiles, using 10 virtual trials of 6 subjects (all male) aged 21 to 50 years receiving a single oral dose of 30, 90 or 270 mg under the fasted conditions and a single oral dose of 90 or 270 mg under fed conditions were simulated over a duration of 144 hours. Visual checks of the predicted concentration-time profiles were performed and the key PK parameters (AUC, Cmax and Tmax) were compared to those observed in the phase 1 study (Table 8).
The PBPK model was verified by comparing the predicted concentration-time profiles with the observed phase 1 MAD data. The trial design used for simulation was based on multiple doses of 135 mg or 270 mg in fed healthy subjects. […]

[3] = PBPK model input parameters: physicochemical
[4] = PBPK model input parameters: blood and plasma binding; assay type: in vitro ADME, human
CYP3A4 = CYP3A4 (Homo sapiens, UniProt P08684); test: CYP3A4 contribution to clearance (fm, CLint) for the PBPK model
Sequence of CYP3A4 (P08684 whole entry): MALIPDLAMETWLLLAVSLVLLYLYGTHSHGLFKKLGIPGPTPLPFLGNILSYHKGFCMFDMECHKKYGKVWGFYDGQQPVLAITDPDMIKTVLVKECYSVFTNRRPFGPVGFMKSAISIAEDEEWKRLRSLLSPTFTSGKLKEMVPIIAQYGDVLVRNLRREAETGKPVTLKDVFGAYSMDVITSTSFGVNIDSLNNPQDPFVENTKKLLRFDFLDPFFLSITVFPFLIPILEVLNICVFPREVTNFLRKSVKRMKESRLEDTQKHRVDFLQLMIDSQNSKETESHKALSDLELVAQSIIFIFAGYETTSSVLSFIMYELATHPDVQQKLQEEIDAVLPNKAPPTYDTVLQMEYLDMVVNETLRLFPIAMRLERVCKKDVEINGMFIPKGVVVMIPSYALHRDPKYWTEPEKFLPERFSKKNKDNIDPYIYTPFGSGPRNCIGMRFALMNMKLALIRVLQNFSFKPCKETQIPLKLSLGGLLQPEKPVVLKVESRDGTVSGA
Excerpt: (§1) CYP2C8 and CYP3A4 were identified in vitro as the major contributing enzymes of leriglitazone with CYP2C8 mostly responsible for the formation of the main metabolite M3. Kinetic parameters of human CYP2C8 and CYP3A4 mediated metabolism of leriglitazone were studied in in vitro studies using recombinant CYP3A4 and CYP2C8 enzymes (ADMESCOPE, Finland). […] As the disappearance of leriglitazone was very slow especially at high initial concentrations, the accuracy of the fit was not as good as based on M3 formation. […] Thus, it was not possible to fit the kinetic parameters Km and Vmax.

CYP2C8 = molecular target: T1, CYP2C8 (Homo sapiens, UniProt P10632); test: CYP2C8 contribution to clearance (fm, CLint) for the PBPK model; conditions: before accounting for biliary and renal clearance
T1 sequence (P10632 1-490): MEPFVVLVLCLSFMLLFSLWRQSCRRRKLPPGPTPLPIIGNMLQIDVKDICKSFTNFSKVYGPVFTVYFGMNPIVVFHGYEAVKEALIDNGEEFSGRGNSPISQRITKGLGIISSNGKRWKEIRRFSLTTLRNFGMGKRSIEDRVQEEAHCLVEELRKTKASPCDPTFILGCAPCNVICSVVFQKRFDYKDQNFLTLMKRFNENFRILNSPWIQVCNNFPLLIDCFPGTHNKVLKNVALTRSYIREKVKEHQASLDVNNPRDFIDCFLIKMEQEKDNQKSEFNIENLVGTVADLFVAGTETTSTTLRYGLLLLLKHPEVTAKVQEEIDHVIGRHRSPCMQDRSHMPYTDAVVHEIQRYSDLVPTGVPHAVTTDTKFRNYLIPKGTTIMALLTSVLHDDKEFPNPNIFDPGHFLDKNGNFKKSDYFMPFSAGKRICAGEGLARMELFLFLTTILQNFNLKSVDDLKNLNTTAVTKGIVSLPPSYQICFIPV
Excerpt: as §1

[5] = before accounting for biliary and renal clearance

SMILES: CC(O)c1ccc(CCOc2ccc(CC3SC(=O)NC3=O)cc2)nc1 (stereo not drawn) [Leriglitazone, 5-[[4-[2-[5-(1-hydroxyethyl)pyridin-2-yl]ethoxy]phenyl]methyl]-1,3-thiazolidine-2,4-dione]
- Gastrointestinal disorders: E ([1]; 135 mg, N = 9): 2
- Gastrointestinal disorders: n (%) ([1]; 135 mg, N = 9): 1 (11)
- General disorders and administration site conditions: E ([1]; 135 mg, N = 9): 1
- General disorders and administration site conditions: n (%) ([1]; 135 mg, N = 9): 1 (11)
- Metabolism and nutrition disorders: E ([1]; 135 mg, N = 9): 1
- Metabolism and nutrition disorders: n (%) ([1]; 135 mg, N = 9): 1 (11)
- Musculoskeletal and connective tissue disorders: E ([1]; 135 mg, N = 9): 3
- Musculoskeletal and connective tissue disorders: n (%) ([1]; 135 mg, N = 9): 3 (33)
- Nervous system disorders: E ([1]; 135 mg, N = 9): 5
- Nervous system disorders: n (%) ([1]; 135 mg, N = 9): 3 (33)
- Renal and urinary disorders: E ([1]; 135 mg, N = 9): 1
- Renal and urinary disorders: n (%) ([1]; 135 mg, N = 9): 1 (11)
- TEAEs Total: E ([1]; 135 mg, N = 9): 13
- TEAEs Total: n (%) ([1]; 135 mg, N = 9): 5 (56)
- Eye disorders: E ([1]; 270 mg, N = 8): 2
- Eye disorders: n (%) ([1]; 270 mg, N = 8): 1 (13)
- Gastrointestinal disorders: E ([1]; 270 mg, N = 8): 4
- Gastrointestinal disorders: n (%) ([1]; 270 mg, N = 8): 3 (38)
- General disorders and administration site conditions: E ([1]; 270 mg, N = 8): 1
- General disorders and administration site conditions: n (%) ([1]; 270 mg, N = 8): 1 (13)
- Infections and infestations: E ([1]; 270 mg, N = 8): 2
- Infections and infestations: n (%) ([1]; 270 mg, N = 8): 2 (25)
- Musculoskeletal and connective tissue disorders: E ([1]; 270 mg, N = 8): 1
- Musculoskeletal and connective tissue disorders: n (%) ([1]; 270 mg, N = 8): 1 (13)
- Nervous system disorders: E ([1]; 270 mg, N = 8): 3
- Nervous system disorders: n (%) ([1]; 270 mg, N = 8): 3 (38)
- Respiratory, thoracic and mediastinal disorders: E ([1]; 270 mg, N = 8): 3
- Respiratory, thoracic and mediastinal disorders: n (%) ([1]; 270 mg, N = 8): 3 (38)
- TEAEs Total: E ([1]; 270 mg, N = 8): 16
- TEAEs Total: n (%) ([1]; 270 mg, N = 8): 8 (100)
- renal clearance fraction (fe) ([2]; PBPK model): 5%
- CLint, additional ([2]; PBPK model input): 0.281 µL/min/mg
- share of metabolism, undefined metabolism [2, 5]: 6%
- Compound type [3]: Diprotic Base
- logP [3]: 2.47
- pKa ([3]; two values): 4.97
- B:P [4]: 0.73
- fugut [4]: 1
- fraction unbound ([4]; human, plasma): 0.04
- CLint, CYP3A4 (CYP3A4; PBPK model input, calculated from estimated fm and mean CL/F): 0.0097 µL/min/pmol
- share of metabolism, CYP3A4 (CYP3A4; [5]): 30%
- share of metabolism, CYP2C8 (CYP2C8): 63.7%
